Measured values reported in patent US20090142431A1 (U.S. Nutraceuticals, LLC d/b/a Valensa International, priority 2005, published 2009).

How the values were obtained:
poxvirus vGK5 = type: cell-based
[1] = compared with alpha-tocopherol; cited from earlier work

Compound: CC1=C(/C=C/C(C)=C/C=C/C(C)=C/C=C/C=C(C)/C=C/C=C(C)/C=C/C2=C(C)C(=O)C(O)CC2(C)C)C(C)(C)CC(O)C1=O (stereo not drawn) [astaxanthin, 3,3′-dihydroxy-β,β-carotene-4,4′-dione]
- IC50 (poxvirus vGK5): less than 125 ppm
- ability to quench singlet oxygen relative to alpha-tocopherol [1]: over five hundred times
